Columns and labels:
[1] = test system: IL-2 secretion by human effector memory T cells (TEM); test: Effector memory T cells IL-2 release assay; format: cell-based; conditions: T-cell; human CD4+ effector memory T cells, CD3/CD28 bead stimulation, 24 h; read-out: CD4TC IL2 IC50
Procedure, shortened: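 Human CD4+ effector memory T cells from healthy-donor buffy coats were stimulated with anti-CD3/CD28 Dynabeads and exposed to 10 semi-log compound doses (0.1% DMSO) for 24 h at 37 °C. Supernatant IL-2 was measured by HTRF, and IC50 came from a 4-parameter logistic fit to maximal IL-2. Viability was checked by flow cytometry.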

[2] = biological target: Recombinant human MALT-1 (amino acids 340-824) (Homo sapiens (Human), UniProt Q9UDY8); test: MALT-1 inhibition assay (fluorogenic substrate Ac-LRSR-Rh110-DP); format: biochemical; conditions: recombinant human MALT-1, substrate Ac-LRSR-Rh110-DP
Procedure, shortened: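 MALT-1 at 3 nM final was reacted with 10 μM Ac-LRSR-Rh110-DP, with substrate addition starting the reaction. Incubation ran 60 minutes at 25° C in the dark. Percent inhibition from fluorescence across doses was fitted to a 4-parameter logistic to give IC50.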

Sequence of Recombinant human MALT-1 (amino acids 340-824) (Q9UDY8 340-824): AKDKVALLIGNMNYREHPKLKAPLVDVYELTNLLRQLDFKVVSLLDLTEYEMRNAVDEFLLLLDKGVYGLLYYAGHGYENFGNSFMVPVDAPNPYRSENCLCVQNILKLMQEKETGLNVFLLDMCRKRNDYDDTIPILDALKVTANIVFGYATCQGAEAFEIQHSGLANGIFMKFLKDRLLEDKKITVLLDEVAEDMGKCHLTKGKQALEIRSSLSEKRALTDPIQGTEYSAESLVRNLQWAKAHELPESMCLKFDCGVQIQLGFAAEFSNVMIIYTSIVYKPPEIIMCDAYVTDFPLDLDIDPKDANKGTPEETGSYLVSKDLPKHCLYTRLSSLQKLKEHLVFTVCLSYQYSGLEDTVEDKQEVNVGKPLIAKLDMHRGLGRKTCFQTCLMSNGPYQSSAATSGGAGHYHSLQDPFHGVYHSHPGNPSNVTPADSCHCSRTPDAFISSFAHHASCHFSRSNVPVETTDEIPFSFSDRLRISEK

Row | IC50 [1] [nM] | IC50 [2] [nM] | SMILES
1 | 160 | 76 | CC(=O)N1CC[C@H](C(=O)N(C)[C@@H](c2ccc(N3CCCc4c3cnc3cc(Cl)nn43)cc2)C(F)(F)F)C1 (relative stereo) [CPD0073189, (3rel-S)-1-acetyl-N-[(1S)-1-(4-{4-chloro-2,3,7,10-tetraazatricyclo[7.4.0.0^2,6]trideca-1(9),3,5,7-tetraen-10-yl}phenyl)-2,2,2-trifluoroethyl]-N-methylpyrrolidine-3-carboxamide]
2 | 80 | 25 | C[C@@H]1CCN(c2ccc([C@H](N(C)C(=O)[C@H]3CC[S@@](=N)(=O)CC3)C(F)(F)F)cc2)c2cnc3cc(Cl)nn3c21 (relative stereo) [CPD0073192, (1rel-s,4rel-s)-N-[(1S)-1-{4-[(13rel-R)-4-chloro-13-methyl-2,3,7,10-tetraazatricyclo[7.4.0.0^2,6]trideca-1(9),3,5,7-tetraen-10-yl]phenyl}-2,2,2-trifluoroethyl]-1-imino-N-methyl-1-oxo-1λ^6-thiane-4-carboxamide]
3 | 68 | 22 | C[C@@H]1CCN(c2ccc([C@H](N(C)C(=O)[C@H]3CC[S@](=N)(=O)CC3)C(F)(F)F)cc2)c2cnc3cc(Cl)nn3c21 (relative stereo) [CPD0073193, (1rel-r,4rel-r)-N-[(1S)-1-{4-[(13rel-R)-4-chloro-13-methyl-2,3,7,10-tetraazatricyclo[7.4.0.0^2,6]trideca-1(9),3,5,7-tetraen-10-yl]phenyl}-2,2,2-trifluoroethyl]-1-imino-N-methyl-1-oxo-1λ^6-thiane-4-carboxamide]
4 | 51 | 20 | C[C@H]1CCN(c2ccc([C@H](N(C)C(=O)[C@H]3CC[S@@](=N)(=O)CC3)C(F)(F)F)cc2)c2cnc3cc(Cl)nn3c21 (relative stereo) [CPD0073194, (1rel-s,4rel-s)-N-[(1S)-1-{4-[(13rel-S)-4-chloro-13-methyl-2,3,7,10-tetraazatricyclo[7.4.0.0^2,6]trideca-1(9),3,5,7-tetraen-10-yl]phenyl}-2,2,2-trifluoroethyl]-1-imino-N-methyl-1-oxo-1λ^6-thiane-4-carboxamide]
5 | 51 | 22 | C[C@H]1CCN(c2ccc([C@H](N(C)C(=O)[C@H]3CC[S@](=N)(=O)CC3)C(F)(F)F)cc2)c2cnc3cc(Cl)nn3c21 (relative stereo) [CPD0073195, (1rel-R,4rel-R)-N-[(1S)-1-{4-[(13rel-S)-4-chloro-13-methyl-2,3,7,10-tetraazatricyclo[7.4.0.0^2,6]trideca-1(9),3,5,7-tetraen-10-yl]phenyl}-2,2,2-trifluoroethyl]-1-imino-N-methyl-1-oxo-1λ^6-thiane-4-carboxamide]
6 | 122 | 80 | CN1C[C@@H](C(=O)N(C)[C@@H](c2ccc(N3CCCc4c3cnc3cc(Cl)nn43)cc2)C(F)(F)F)CCC1=O (relative stereo) [CPD0073196, (3rel-S)-N-[(1S)-1-(4-{4-chloro-2,3,7,10-tetraazatricyclo[7.4.0.0^2,6]trideca-1(9),3,5,7-tetraen-10-yl}phenyl)-2,2,2-trifluoroethyl]-N,1-dimethyl-6-oxopiperidine-3-carboxamide]
7 | 207 | 103 | CN1C[C@H](C(=O)N(C)[C@@H](c2ccc(N3CCCc4c3cnc3cc(Cl)nn43)cc2)C(F)(F)F)CCC1=O (relative stereo) [CPD0073197, (3rel-R)-N-[(1S)-1-(4-{4-chloro-2,3,7,10-tetraazatricyclo[7.4.0.0^2,6]trideca-1(9),3,5,7-tetraen-10-yl}phenyl)-2,2,2-trifluoroethyl]-N,1-dimethyl-6-oxopiperidine-3-carboxamide]
8 | 175 | 127 | CC(=O)N1CCC[C@@H](C(=O)N(C)[C@@H](c2ccc(N3CCCc4c3cnc3cc(Cl)nn43)cc2)C(F)(F)F)C1 (relative stereo) [CPD0073499, (3rel-R)-1-acetyl-N-[(1S)-1-(4-{4-chloro-2,3,7,10-tetraazatricyclo[7.4.0.0^2,6]trideca-1(9),3,5,7-tetraen-10-yl}phenyl)-2,2,2-trifluoroethyl]-N-methylpiperidine-3-carboxamide]
9 | 267 | 167 | CC(=O)N1CCC[C@H](C(=O)N(C)[C@@H](c2ccc(N3CCCc4c3cnc3cc(Cl)nn43)cc2)C(F)(F)F)C1 (relative stereo) [CPD0073500, (3rel-S)-1-acetyl-N-[(1S)-1-(4-{4-chloro-2,3,7,10-tetraazatricyclo[7.4.0.0^2,6]trideca-1(9),3,5,7-tetraen-10-yl}phenyl)-2,2,2-trifluoroethyl]-N-methylpiperidine-3-carboxamide]
10 | 200 | 79 | CN1C[C@H](C(=O)N(C)[C@@H](c2ccc(N3CCCc4c3cnc3cc(Cl)nn43)cc2)C(F)(F)F)CC1=O (relative stereo) [CPD0073556, (3rel-R)-N-[(1S)-1-(4-{4-chloro-2,3,7,10-tetraazatricyclo[7.4.0.0^2,6]trideca-1(9),3,5,7-tetraen-10-yl}phenyl)-2,2,2-trifluoroethyl]-N,1-dimethyl-5-oxopyrrolidine-3-carboxamide]
11 | 282 | 121 | CN1C[C@@H](C(=O)N(C)[C@@H](c2ccc(N3CCCc4c3cnc3cc(Cl)nn43)cc2)C(F)(F)F)CC1=O (relative stereo) [CPD0073557, (3rel-S)-N-[(1S)-1-(4-{4-chloro-2,3,7,10-tetraazatricyclo[7.4.0.0^2,6]trideca-1(9),3,5,7-tetraen-10-yl}phenyl)-2,2,2-trifluoroethyl]-N,1-dimethyl-5-oxopyrrolidine-3-carboxamide]
12 | 157 | 92 | CN(C(=O)[C@H]1CCCS(=O)(=O)N1)[C@@H](c1ccc(N2CCCc3c2cnc2cc(Cl)nn32)cc1)C(F)(F)F (relative stereo) [CPD0073560, (3rel-R)-N-[(1S)-1-(4-{4-chloro-2,3,7,10-tetraazatricyclo[7.4.0.0^2,6]trideca-1(9),3,5,7-tetraen-10-yl}phenyl)-2,2,2-trifluoroethyl]-N-methyl-1,1-dioxo-1λ^6,2-thiazinane-3-carboxamide]
13 | 352 | 80 | CN(C(=O)C1CN(C(=O)[C@H]2CCO2)C1)[C@@H](c1ccc(N2CCCc3c2cnc2cc(Cl)nn32)cc1)C(F)(F)F (relative stereo) [CPD0073562, N-[(1S)-1-(4-{4-chloro-2,3,7,10-tetraazatricyclo[7.4.0.0^2,6]trideca-1(9),3,5,7-tetraen-10-yl}phenyl)-2,2,2-trifluoroethyl]-N-methyl-1-[(2rel-R)-oxetane-2-carbonyl]azetidine-3-carboxamide]
14 | 269 | 62 | CN(C(=O)C1CN(C(=O)[C@@H]2CCO2)C1)[C@@H](c1ccc(N2CCCc3c2cnc2cc(Cl)nn32)cc1)C(F)(F)F (relative stereo) [CPD0073563, N-[(1S)-1-(4-{4-chloro-2,3,7,10-tetraazatricyclo[7.4.0.0^2,6]trideca-1(9),3,5,7-tetraen-10-yl}phenyl)-2,2,2-trifluoroethyl]-N-methyl-1-[(2rel-S)-oxetane-2-carbonyl]azetidine-3-carboxamide]
15 | 241 | 76 | CN(C(=O)[C@@H]1CCC(=O)N1)[C@@H](c1ccc(N2CCCc3c2cnc2cc(Cl)nn32)cc1)C(F)(F)F (relative stereo) [CPD0073566, (2rel-S)-N-[(1S)-1-(4-{4-chloro-2,3,7,10-tetraazatricyclo[7.4.0.0^2,6]trideca-1(9),3,5,7-tetraen-10-yl}phenyl)-2,2,2-trifluoroethyl]-N-methyl-5-oxopyrrolidine-2-carboxamide]
16 | 119 | 35 | CN(C(=O)[C@H]1CCC(=O)N1)[C@@H](c1ccc(N2CCCc3c2cnc2cc(Cl)nn32)cc1)C(F)(F)F (relative stereo) [CPD0073567, (2rel-R)-N-[(1S)-1-(4-{4-chloro-2,3,7,10-tetraazatricyclo[7.4.0.0^2,6]trideca-1(9),3,5,7-tetraen-10-yl}phenyl)-2,2,2-trifluoroethyl]-N-methyl-5-oxopyrrolidine-2-carboxamide]
17 | 131 | 38 | CN(C(=O)[C@@H]1CCC(=O)NC1)[C@@H](c1ccc(N2CCCc3c2cnc2cc(Cl)nn32)cc1)C(F)(F)F (relative stereo) [CPD0073568, (3rel-R)-N-[(1S)-1-(4-{4-chloro-2,3,7,10-tetraazatricyclo[7.4.0.0^2,6]trideca-1(9),3,5,7-tetraen-10-yl}phenyl)-2,2,2-trifluoroethyl]-N-methyl-6-oxopiperidine-3-carboxamide]
18 | 140 | 47 | CN(C(=O)[C@H]1CCC(=O)NC1)[C@@H](c1ccc(N2CCCc3c2cnc2cc(Cl)nn32)cc1)C(F)(F)F (relative stereo) [CPD0073569, (3rel-S)-N-[(1S)-1-(4-{4-chloro-2,3,7,10-tetraazatricyclo[7.4.0.0^2,6]trideca-1(9),3,5,7-tetraen-10-yl}phenyl)-2,2,2-trifluoroethyl]-N-methyl-6-oxopiperidine-3-carboxamide]
19 | 216 | 62 | CN1C(=O)OC[C@@H]1C(=O)N(C)[C@@H](c1ccc(N2CCCc3c2cnc2cc(Cl)nn32)cc1)C(F)(F)F (relative stereo) [CPD0073570, (4rel-R)-N-[(1S)-1-(4-{4-chloro-2,3,7,10-tetraazatricyclo[7.4.0.0^2,6]trideca-1(9),3,5,7-tetraen-10-yl}phenyl)-2,2,2-trifluoroethyl]-N,3-dimethyl-2-oxo-1,3-oxazolidine-4-carboxamide]

— patent US20250051327A1, “MALT-1 MODULATORS” (EXSCIENTIA AI LIMITED, priority 2020, published 2025)
